Reference: US20230212549A1, “COMPOUNDS COMPRISING A […] LIGAND AND USE THEREOF” (priority 2021, published 2023)
Numbered stars: 1 amine (or outer) side, 2 acyl side, 3 side chain; on linkers, the order of the positions; unused ones are H or OH. Bridge positions count the residues as written; N and C are the ends. Square brackets hold non-standard residues; d marks the D form. Peptide text beside a SMILES is read from it. * marks the point of attachment. X13 = O=C(O)CN1CCN(CC(=O)O)CCN(CC(=O)N2CCN(Cc3cc(C[*:1])cc(C[*:2])c3)CC2)CCN(CC(=O)O)CC1; X12 = O=C(O)CN1CCN(CC(=O)O)CCN(CC(=O)NCCCOCCOCCOCCCN*)CCN(CC(=O)O)CC1; DOTA = O=C(O)CN1CCN(CC(=O)O)CCN(CC(=O)*)CCN(CC(=O)O)CC1; mXylylene = c1cc(C[*:1])cc(C[*:2])c1; NMeF = CN[C@@H](Cc1ccccc1)C(=O)O; Suc = O=C(CCC(=O)[*:2])[*:1]; Orn = NCCC[C@H](N)C(=O)O; Hexanoyl = CCCCCC(=O)*; AEEA = NCCOCCOCC(=O)O

What was measured:
Human recombinant FAP = Human recombinant FAP (Homo sapiens, UniProt Q12884); assay: FRET-based FAP protease activity assay; format: biochemical; design: purchased R&D systems 3715-SE
[1] = target: T1, FAP-expressing human WI-38 fibroblasts (Homo sapiens, UniProt Q12884); assay: Competitive FACS binding assay
T1 construct: FAP-expressing human WI-38 fibroblasts (ECACC) were cultured in EMEM; host or cells: WI-38 human fibroblasts
Protocol: Cells were analyzed in an Attune NxT flow cytometer. […] […].
Cells were analyzed in an Attune NxT flow cytometer. […]

[2] = pIC50 Category (Activity), FRET-based FAP protease activity assay, recombinant human FAP, 37° C.
[3] = pIC50 Category (Activity), FRET-peptide substrate, 37° C.

Sequence of Human recombinant FAP (Q12884 whole entry): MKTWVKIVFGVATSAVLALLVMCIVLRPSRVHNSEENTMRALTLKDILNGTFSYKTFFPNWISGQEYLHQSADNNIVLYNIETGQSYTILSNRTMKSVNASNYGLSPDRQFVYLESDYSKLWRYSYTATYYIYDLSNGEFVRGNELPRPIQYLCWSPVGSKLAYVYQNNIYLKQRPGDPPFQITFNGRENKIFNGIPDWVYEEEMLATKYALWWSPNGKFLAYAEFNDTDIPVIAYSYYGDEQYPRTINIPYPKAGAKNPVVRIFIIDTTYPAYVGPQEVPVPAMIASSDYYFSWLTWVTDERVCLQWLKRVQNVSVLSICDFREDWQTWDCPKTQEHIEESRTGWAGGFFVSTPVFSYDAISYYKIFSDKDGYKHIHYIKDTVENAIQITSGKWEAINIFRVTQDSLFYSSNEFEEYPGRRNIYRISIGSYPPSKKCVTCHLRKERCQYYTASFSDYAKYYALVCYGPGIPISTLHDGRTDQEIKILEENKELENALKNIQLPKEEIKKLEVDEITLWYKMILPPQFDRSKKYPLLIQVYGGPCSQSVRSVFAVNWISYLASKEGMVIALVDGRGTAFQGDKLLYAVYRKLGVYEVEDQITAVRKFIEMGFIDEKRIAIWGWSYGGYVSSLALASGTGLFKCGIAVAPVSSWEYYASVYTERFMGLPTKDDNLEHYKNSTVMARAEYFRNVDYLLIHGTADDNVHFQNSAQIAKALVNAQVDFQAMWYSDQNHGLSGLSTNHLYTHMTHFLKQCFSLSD
T1 sequence (Q12884 whole entry): as above

IC50 (Human recombinant FAP; [2]) | IC50 [1] | IC50 (Human recombinant FAP; pIC50 (highest activity categories), text on Table 9 categories (FACS binding and FAP activity assay)) | IC50 (Human recombinant FAP; [3]) | SMILES | IC50 (Human recombinant FAP; pIC50 Category (activity), Recombinant human FAP)
100 to 794 nM | > 1000 nM |  |  | CCCCCC(=O)N[C@H]1CSCc2cccc(c2)CSC[C@@H](C(N)=O)NC(=O)[C@H](Cc2ccccc2)NC(=O)[C@H](CCC(=O)O)NC(=O)[C@H](CCCNC(C)=O)NC(=O)[C@@H]2CCCN2C(=O)[C@@H]2CCCN2C1=O [3BP-3372, Hex-[Cys(3MeBn)-Pro-Pro-Orn(Ac)-Glu-Phe-Cys]-NH2] (Hexanoyl-CPP[Orn](Ac)EFC-NH2; linker 1-7 via mXylylene) | 
> 1000 nM | > 1000 nM |  |  | C[C@@H](O)[C@@H]1NC(=O)[C@@H]2CCCN2C(=O)[C@@H]2CCCN2C(=O)[C@@H](NC(=O)CCCS(N)(=O)=O)CSCc2cccc(c2)CSC[C@@H](C(N)=O)NC(=O)[C@H](Cc2ccccc2)NC(=O)[C@H](CCC(N)=O)NC1=O [3BP-3860, H2NSO2-But-[Cys(3MeBn)-Pro-Pro-Thr-Gln-Phe-Cys]-NH2] | 
> 1000 nM | > 1000 nM |  |  | C[C@@H](O)[C@@H]1NC(=O)[C@@H]2CCCN2C(=O)[C@@H]2CCCN2C(=O)[C@@H](NC(=O)CCCCN)CSCc2cccc(c2)CSC[C@@H](C(N)=O)NC(=O)[C@H](Cc2ccccc2)NC(=O)[C@H](CCC(N)=O)NC1=O [3BP-3760, H-Ava-[Cys(3MeBn)-Pro-Pro-Thr-Gln-Phe-Cys]-NH2] | 
 | 100 to 794 nM |  | 10 to 79.4 nM | CCCC[C@H](NC(=O)CCC(=O)NCCCOCCOCCOCCCNC(=O)[C@H](CCC(=O)NC[C@H](O)[C@@H](O)[C@H](O)[C@H](O)CO)NC(=O)[C@H](CCC(=O)NC[C@H](O)[C@@H](O)[C@H](O)[C@H](O)CO)NC(=O)C(CNCCN)CNCCN)C(=O)N[C@H]1CSCc2cccc(c2)CSC[C@@H](C(=O)O)NC(=O)[C@H](Cc2ccccc2)NC(=O)[C@H](CCC(N)=O)NC(=O)[C@H]([C@@H](C)O)NC(=O)[C@@H]2CCCN2C(=O)[C@@H]2CCCN2C1=O [3BP-4265, N4Ac-Glu(AGLU′)-Glu(AGLU′)-Ttds-Nle-[Cys-(3MeBn)-Pro-Pro-Thr-Gln-Phe-Cys]-OH] | 
 | > 1000 nM |  | > 1000 nM | CCCC[C@H](NC(=O)[C@H](CCC(=O)NC[C@H](O)[C@@H](O)[C@H](O)[C@H](O)CO)NC(=O)CCC(=O)NCCCOCCOCCOCCCNC(=O)C(CNCCN)CNCCN)C(=O)N[C@H]1CSCc2cccc(c2)CSC[C@@H](C(=O)O)NC(=O)[C@H](Cc2ccccc2)NC(=O)[C@H](CCC(N)=O)NC(=O)[C@H]([C@@H](C)O)NC(=O)[C@@H]2CCCN2C(=O)[C@@H]2CCCN2C1=O [3BP-4248, N4Ac-Ttds-Glu(AGLU′)-Nle-[Cys-(3MeBn)-Pro-Pro-Thr-Gln-Phe-Cys]-OH] | 

Further lines, the compound ahead of its results:

SMILES | IC50 (Human recombinant FAP; [2]) | IC50 [1] | IC50 (Human recombinant FAP; pIC50 (highest activity categories), text on Table 9 categories (FACS binding and FAP activity assay)) | IC50 (Human recombinant FAP; [3]) | IC50 (Human recombinant FAP; pIC50 Category (activity), Recombinant human FAP)
C[C@@H](O)[C@@H]1NC(=O)[C@@H]2CCCN2C(=O)[C@@H]2CCCN2C(=O)[C@@H](NC(=O)COCCOCCNC(=O)CN2CCN(CC(=O)O)CCN(CC(=O)O)CCN(CC(=O)O)CC2)CSCc2cccc(c2)CSC[C@@H](C(=O)N[C@@H](CC(=O)O)C(=O)N[C@@H](Cc2c[nH]cn2)C(=O)N(C)[C@@H](Cc2ccccc2)C(=O)N[C@@H](CCCNC(=N)N)C(=O)N[C@@H](CC(=O)O)C(N)=O)NC(=O)[C@H](Cc2ccccc2)NC(=O)[C@H](CCC(=O)O)NC1=O [3BP-3267, DOTA-O2Oc-[Cys(3MeBn)-Pro-Pro-Thr-Glu-Phe-Cys]-Asp-His-Nmf-Arg-Asp-NH2] ({DOTA-AEEA}-CPPTEFCDH[NMeF]RD-NH2; linker 1-7 via mXylylene) | 100 to 794 nM | 100 to 794 nM |  |  | 
CCCCCC(=O)N[C@H]1CSCc2cc(CSCCNC(=O)COCCOCCNC(=O)CCC(C(=O)O)N3CCN(CC(=O)O)CCN(CC(=O)O)CC3)cc(c2)CSCC(C(N)=O)NC(=O)[C@H](Cc2ccccc2)NC(=O)[C@H](CCC(N)=O)NC(=O)[C@H]([C@@H](C)O)NC(=O)[C@@H]2CCCN2C(=O)[C@@H]2CCCN2C1=O (stereo partly drawn) [3BP-4708, Hex-[Cys(tMeBn(NODAGA-O2Oc-AET))-Pro-Pro-Thr-Gln-Phe-Cys]-NH2] |  | < 10 nM |  |  | < 10 nM
CSCC[C@H](NC(=O)CCC(=O)NCCCOCCOCCOCCCNC(=O)CN1CCN(CC(=O)O)CCN(CC(=O)O)CCN(CC(=O)O)CC1)C(=O)N[C@H]1CSCc2cccc(c2)CSC[C@@H](C(=O)N[C@@H](CC(=O)O)C(=O)N[C@@H](Cc2c[nH]cn2)C(=O)N[C@@H](Cc2ccccc2)C(=O)N[C@@H](CCCNC(=N)N)C(=O)N[C@@H](CC(=O)O)C(N)=O)NC(=O)[C@H](Cc2ccccc2)NC(=O)[C@H](CCC(=O)O)NC(=O)[C@H]([C@@H](C)O)NC(=O)[C@@H]2CCCN2C(=O)[C@@H]2CCCN2C1=O [3BP-3169, DOTA-Ttds-Met-[Cys(3MeBn)-Pro-Pro-Thr-Glu-Phe-Cys]-Asp-His-Phe-Arg-Asp-NH2] ({X12-Suc}-MCPPTEFCDHFRD-NH2; linker 2-8 via mXylylene) | < 10 nM | < 10 nM | < 10 nM |  | 
CCCCCC(=O)N[C@H]1CSCc2cc(cc(CN3CCN(C(=O)CN4CCN(CC(=O)O)CCN(CC(=O)O)CCN(CC(=O)O)CC4)CC3)c2)CSC[C@@H](C(=O)N[C@@H](CC(=O)O)C(N)=O)NC(=O)[C@H](CCC(N)=O)NC(=O)[C@H](Cc2ccccc2)NC(=O)[C@@H]2CCCN2C(=O)[C@H]([C@@H](C)O)NC(=O)[C@@H]2CCCN2C1=O [3BP-3854, Hex-[Cys(tMeBn(DOTA-PP))-Pro-Thr-Pro-Phe-Gln-Cys]-Asp-NH2] (Hexanoyl-CPTPFQCD-NH2; linker 1-7 via X13) | > 1000 nM | > 1000 nM |  |  | 
